# In patent US20130040935A1, “CYCLIC KETO-ENOLS FOR THERAPY” (BAYER INTELLECTUAL PROPERTY GMBH, priority 2010, published 2013):
# Where two headings read alike, the source gives them in different places.
# Legend:
# [1] = molecular target: T1, human ACC1 (acetyl-coenzyme A carboxylase alpha transcript variant 1) (Homo sapiens, UniProt Q13085); experiment: Human ACC1 enzyme assay, Assay B1 (ADP-Glo); assay type: biochemical
# T1 construct: FLAG (C); made in house; host or cells: baculovirus-infected insect cells (Hi5)
# Description: Essentially, the enzyme activity is measured by quantifying the adenosine diphosphate (ADP) formed as a byproduct of the enzyme reactions using the ADP-Glo™ detection system from Promega. In this test, initially the adenosine triphosphate (ATP) not consumed in the enzyme reaction is converted quantitatively with an adenylate cyclase (“ADP-GLO reagent”) into cAMP, the adenylate cyclase is then stopped and (“kinase detection reagent”) the ADP formed is subsequently converted into ATP, which is converted in a luciferase-based reaction into a glow luminescence signal.
# The concentration of the hACC1 was adapted to the respective activity of the enzyme and adjusted such that the assay operated in the linear range. […] The amount of light emitted was taken as a measure for the amount of ADP formed and thus for the enzyme activity of the hACC1.
# MCF7 = experiment: Cell proliferation assay (CellTiter-Glo, 96 h), MCF7; assay type: cell-based; conditions: Homo sapiens
# Description: In accordance with the invention, the substances were tested in cell-based assays for the ability of the substances of inhibiting tumour cell proliferation after a 96-hour incubation with the substance. Cell viability was tested using the CellTiter-Glo® luminescent cell viability assay (Promega). The cells were sown at a density of 2000-5000 cells/well (depending on the cell line) in 100 μl growth medium on 96-well microtitre plates. For each cell line examined, cells were sown on a separate plate to determine the luminescence at t=0 hours and t=96 hours. After overnight incubation at 37° C., the luminescence values for the t=0 samples were determined. The dose plates for the t=96 hours points in time were treated with substances diluted with growth medium. The cells were then incubated at 37° C. for 96 hours, and the luminescence values for the t=96 hours sample were then determined. For data analysis, the t=0 values were subtracted from the t=96 hour values for treated and untreated samples. The differences in luminescence in percent between substance-treated samples and control values were used to determine the growth inhibition in percent.
# The substances were tested in the following cell lines which represent the stated indications in an exemplary manner: […]
# [2] = molecular target: human ACC2 (acetyl-coenzyme A carboxylase 2) (Homo sapiens, UniProt O00763); experiment: Human ACC2 enzyme assay, Assay B2 (ADP-Glo);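 further: human ACC2 activity read as ADP product, detected by luciferase glow luminescence after residual ATP removal, enzyme near 2 ng/µl in linear range, detection steps at 22 °C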
# [3] = Assay B1, read-out: ACC 1 (=B1) IC50
# [4] = MCF7, Table 7, 96-hour incubation
# [5] = Assay B1, ADP-Glo, read-out: ACC 1 (=B1) IC50
# [6] = MCF7, Table 9a, 96-hour incubation
# Sequence of human ACC2 (acetyl-coenzyme A carboxylase 2) (O00763 27-2458 limits assumed): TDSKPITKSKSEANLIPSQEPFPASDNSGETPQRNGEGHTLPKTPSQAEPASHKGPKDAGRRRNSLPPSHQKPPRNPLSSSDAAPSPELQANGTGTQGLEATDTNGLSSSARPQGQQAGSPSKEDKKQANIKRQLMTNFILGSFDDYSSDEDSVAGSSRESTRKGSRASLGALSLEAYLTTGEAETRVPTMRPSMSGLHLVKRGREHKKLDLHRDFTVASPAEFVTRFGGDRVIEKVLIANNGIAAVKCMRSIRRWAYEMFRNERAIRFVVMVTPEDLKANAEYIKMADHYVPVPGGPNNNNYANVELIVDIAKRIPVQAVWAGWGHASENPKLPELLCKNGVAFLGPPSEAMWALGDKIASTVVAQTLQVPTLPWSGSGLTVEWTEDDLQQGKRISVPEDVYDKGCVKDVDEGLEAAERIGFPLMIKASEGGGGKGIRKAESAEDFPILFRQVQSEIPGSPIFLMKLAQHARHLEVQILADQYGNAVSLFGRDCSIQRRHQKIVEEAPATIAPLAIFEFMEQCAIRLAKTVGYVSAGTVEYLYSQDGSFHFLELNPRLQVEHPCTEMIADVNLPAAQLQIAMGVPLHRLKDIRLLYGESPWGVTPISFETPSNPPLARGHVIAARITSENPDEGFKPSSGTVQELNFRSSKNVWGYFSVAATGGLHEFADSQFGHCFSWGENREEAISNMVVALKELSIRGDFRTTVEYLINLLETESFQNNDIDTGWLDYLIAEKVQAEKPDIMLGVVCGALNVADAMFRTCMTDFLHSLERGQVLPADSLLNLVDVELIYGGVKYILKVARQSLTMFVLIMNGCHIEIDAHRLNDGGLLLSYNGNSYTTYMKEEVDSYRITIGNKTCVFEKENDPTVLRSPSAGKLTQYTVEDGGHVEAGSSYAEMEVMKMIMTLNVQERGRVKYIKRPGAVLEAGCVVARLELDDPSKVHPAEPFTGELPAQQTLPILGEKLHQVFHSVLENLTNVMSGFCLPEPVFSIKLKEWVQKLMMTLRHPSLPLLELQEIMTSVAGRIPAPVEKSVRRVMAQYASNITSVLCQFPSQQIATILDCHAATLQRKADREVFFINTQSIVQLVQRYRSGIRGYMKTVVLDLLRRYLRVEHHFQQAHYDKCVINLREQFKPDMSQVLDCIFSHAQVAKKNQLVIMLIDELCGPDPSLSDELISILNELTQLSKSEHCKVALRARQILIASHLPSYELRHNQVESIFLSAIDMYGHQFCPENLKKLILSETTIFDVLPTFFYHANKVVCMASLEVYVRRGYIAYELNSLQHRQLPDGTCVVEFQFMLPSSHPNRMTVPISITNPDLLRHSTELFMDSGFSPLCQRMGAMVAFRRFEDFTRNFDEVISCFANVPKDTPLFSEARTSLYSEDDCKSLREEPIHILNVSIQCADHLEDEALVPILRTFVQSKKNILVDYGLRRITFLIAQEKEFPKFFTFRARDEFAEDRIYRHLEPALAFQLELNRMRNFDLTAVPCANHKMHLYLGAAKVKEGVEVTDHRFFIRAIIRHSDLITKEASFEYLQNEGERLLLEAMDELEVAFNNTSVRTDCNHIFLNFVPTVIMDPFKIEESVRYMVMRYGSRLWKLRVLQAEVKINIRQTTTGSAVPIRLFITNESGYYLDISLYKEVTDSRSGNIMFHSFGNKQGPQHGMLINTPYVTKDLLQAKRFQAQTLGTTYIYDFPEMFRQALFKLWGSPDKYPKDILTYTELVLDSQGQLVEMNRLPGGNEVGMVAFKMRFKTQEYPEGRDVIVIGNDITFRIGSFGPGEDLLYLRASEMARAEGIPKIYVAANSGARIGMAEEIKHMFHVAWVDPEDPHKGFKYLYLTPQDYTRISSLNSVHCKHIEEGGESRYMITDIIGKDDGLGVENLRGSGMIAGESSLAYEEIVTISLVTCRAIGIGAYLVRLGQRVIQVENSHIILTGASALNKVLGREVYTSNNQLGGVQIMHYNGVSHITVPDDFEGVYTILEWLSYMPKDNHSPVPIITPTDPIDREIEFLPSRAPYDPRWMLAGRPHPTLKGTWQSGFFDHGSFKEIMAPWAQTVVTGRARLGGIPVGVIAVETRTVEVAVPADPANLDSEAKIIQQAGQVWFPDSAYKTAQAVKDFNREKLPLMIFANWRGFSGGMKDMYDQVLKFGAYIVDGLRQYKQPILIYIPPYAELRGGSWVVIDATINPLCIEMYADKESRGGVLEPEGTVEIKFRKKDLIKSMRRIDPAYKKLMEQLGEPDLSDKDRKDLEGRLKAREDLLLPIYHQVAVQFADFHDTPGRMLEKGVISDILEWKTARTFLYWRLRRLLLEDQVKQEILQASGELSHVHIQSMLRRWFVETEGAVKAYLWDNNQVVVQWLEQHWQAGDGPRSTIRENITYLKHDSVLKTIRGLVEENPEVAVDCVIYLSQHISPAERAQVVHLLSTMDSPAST
"IC50 [1, 3]",IC50 [2],IC50 (MCF7; MCF7 cells),"IC50 [1, 5]",IC50 (MCF7; [6]),Compound,IC50 (MCF7; [4]),IC50 [1]
4930 nM,> 20000 nM,,,,"CO[C@H]1CC[C@]2(CC1)NC(=O)C(c1cc(-c3ccc(F)c(Cl)c3)ccc1C)=C2O [1-43, (5s,8s)-3-(3′-chloro-4′-fluoro-4-methylbiphenyl-3-yl)-4-hydroxy-8-methoxy-1-azaspiro[4.5]dec-3-en-2-one]",1220 nM,
,2700 nM,624 nM,175 nM,,"Cc1ccc(-c2ccc(Cl)cc2)c(C)c1C1=C(O)C2(CCCCC2)OC1=O [2-4, 3-(4′-chloro-2,4-dimethylbiphenyl-3-yl)-4-hydroxy-1-oxaspiro[4.5]dec-3-en-2-one]",,
,5420 nM,724 nM,6850 nM,,"Cc1cc(C)c(-c2ccc(Cl)cc2)c(C)c1C1=C(O)C2(CCCCC2)OC1=O [2-6, 3-(4′-chloro-2,4,6-trimethylbiphenyl-3-yl)-4-hydroxy-1-oxaspiro[4.5]dec-3-en-2-one]",,
,1180 nM,400 nM,58 nM,,"COCC1CCC2(CC1)OC(=O)C(c1c(C)ccc(-c3ccc(Cl)cc3)c1C)=C2O (stereo not drawn) [2-17, 3-(4′-chloro-2,4-dimethylbiphenyl-3-yl)-4-hydroxy-8-(methoxymethyl)-1-oxaspiro[4.5]dec-3-en-2-one]",,
,12200 nM,935 nM,276 nM,,"COCCC1CCCC2(C1)OC(=O)C(c1cc(-c3ccc(Cl)cc3)ccc1C)=C2O (stereo not drawn) [2-18, 3-(4′-chloro-4-methylbiphenyl-3-yl)-4-hydroxy-7-(2 methoxyethyl)-1-oxaspiro[4.5]dec-3-en-2-one]",,
,1720 nM,214 nM,102 nM,,"COCC1CCC2(CC1)OC(=O)C(c1cc(-c3ccc(Cl)cc3)ccc1C)=C2O (stereo not drawn) [2-20, 3-(4′-chloro-4-methylbiphenyl-3-yl)-4-hydroxy-8-(methoxymethyl)-1-oxaspiro[4.5]dec-3-en-2-one]",,
,> 20000 nM,5520 nM,6110 nM,,"Cc1ccc(-c2ccc(Cl)cc2)c(C)c1C1=C(O)[C@]2(CC[C@]3(CCCO3)CC2)OC1=O [2-26, (5s,8r)-3-(4′-chloro-2,4-dimethylbiphenyl-3-yl)-4-hydroxy-1,9-dioxadispiro[4.2.4.2]tetradec-3-en-2-one]",,
,4600 nM,296 nM,128 nM,,"Cc1ccc(-c2ccc(F)cc2)cc1C1=C(O)[C@]2(CC[C@@]3(CCCO3)CC2)OC1=O [2-28, (5r,8s)-3-(4′-fluoro-4-methylbiphenyl-3-yl)-4-hydroxy-1,9-dioxadispiro[4.2.4.2]tetradec-3-en-2-one]",,
,1560 nM,466 nM,246 nM,,"Cc1cc(C)c(-c2ccc(Cl)cc2)cc1C1=C(O)C2(CCSCC2)OC1=O [2-42, 3-(4′-chloro-4,6-dimethylbiphenyl-3-yl)-4-hydroxy-1-oxa-8-thiaspiro[4.5]dec-3-en-2-one]",,
,417 nM,762 nM,1540 nM,,"Cc1cc(C)c(-c2ccc(Cl)cc2)c(C)c1C1=C(O)C2(CCCCCC2)OC1=O [2-48, 3-(4′-chloro-2,4,6-trimethylbiphenyl-3-yl)-4-hydroxy-1-oxaspiro[4.6]undec-3-en-2-one]",,
265 nM,1150 nM,,,575 nM,"Cc1cc(C)c(-c2ccc(Cl)cc2)cc1C1=C(O)C2(CCCCC2)SC1=O [3-3, 3-(4′-chloro-4,6-dimethylbiphenyl-3-yl)-4-hydroxy-1-thiaspiro[4.5]dec-3-en-2-one]",,
411 nM,19700 nM,,,545 nM,"Cc1ccc(-c2ccc(C)c(C3=C(O)C4(CCCCC4)CC3=O)c2)cc1 [6-1, 3-(4,4′-dimethylbiphenyl-3-yl)-4-hydroxyspiro[4.5]dec-3-en-2-one]",,
263 nM,3230 nM,,,194 nM,"Cc1ccc(-c2ccc(Cl)cc2Cl)cc1C1=C(O)C2(CCCCC2)CC1=O [6-2, 3-(2′,4′-dichloro-4-methylbiphenyl-3-yl)-4-hydroxyspiro[4.5]dec-3-en-2-one]",,
523 nM,1210 nM,,,605 nM,"CCC1CCC2(CC1)CC(=O)C(c1cc(-c3ccc(Cl)cc3)ccc1C)=C2O (stereo not drawn) [6-5, 3-(4′-chloro-4-methylbiphenyl-3-yl)-8-ethyl-4-hydroxyspiro[4.5]dec-3-en-2-one]",,
946 nM,1250 nM,,,582 nM,"CCCC1CCC2(CC1)CC(=O)C(c1cc(-c3ccc(Cl)cc3)ccc1C)=C2O (stereo not drawn) [6-6, 3-(4′-chloro-4-methylbiphenyl-3-yl)-4-hydroxy-8-propylspiro[4.5]dec-3-en-2-one]",,
1030 nM,7190 nM,,,338 nM,"Cc1ccc(-c2ccc(Cl)cc2)cc1C1=C(O)C2(CCCCCC2)CC1=O [6-7, 3-(4′-chloro-4-methylbiphenyl-3-yl)-4-hydroxyspiro[4.6]undec-3-en-2-one]",,
1160 nM,151 nM,,,254 nM,"Cc1cc(C)c(-c2ccc(Cl)cc2)cc1C1=C(O)C2(CCCCC2)CC1=O [6-8, 3-(4′-chloro-4,6-dimethylbiphenyl-3-yl)-4-hydroxyspiro[4.5]dec-3-en-2-one]",,

Compound,"IC50 [1, 3]",IC50 [2],IC50 (MCF7; MCF7 cells),"IC50 [1, 5]",IC50 (MCF7; [6]),IC50 (MCF7; [4]),IC50 [1]
"CO[C@H]1CC[C@]2(CC1)NC(=O)C(c1c(C)ccc(-c3ccc(F)cc3)c1C)=C2O [1-45, (5s,8s)-3-(4′-fluoro-2,4-dimethylbiphenyl-3-yl)-4-hydroxy-8-methoxy-1-azaspiro[4.5]dec-3-en-2-one]",,8830 nM,,,,626 nM,701 nM
"COC1CCC2(C1)NC(=O)C(c1c(C)ccc(-c3ccc(Cl)cc3)c1C)=C2O (stereo not drawn) [1-48, 3-(4′-chloro-2,4-dimethylbiphenyl-3-yl)-4-hydroxy-7-methoxy-1-azaspiro[4.4]non-3-en-2-one]",,10400 nM,,,,852 nM,1560 nM
"COCC1CCCC2(C1)NC(=O)C(c1cc(-c3ccc(Cl)cc3)ccc1C)=C2O (stereo not drawn) [1-51, 3-(4′-chloro-4-methylbiphenyl-3-yl)-4-hydroxy-7-(methoxymethyl)-1-azaspiro[4.5]dec-3-en-2-one]",,5450 nM,,,,253 nM,415 nM
"COCC1CCCC2(C1)NC(=O)C(c1cc(-c3ccc(Cl)cc3)ccc1Cl)=C2O (stereo not drawn) [1-52, 3-(4,4′-dichlorobiphenyl-3-yl)-4-hydroxy-7-(methoxymethyl)-1-azaspiro[4.5]dec-3-en-2-one]",,16000 nM,,,,739 nM,1790 nM
"COCCC1CCC2(CC1)NC(=O)C(c1c(C)ccc(-c3ccc(Cl)cc3)c1C)=C2O (stereo not drawn) [1-57, 3-(4′-chloro-2,4-dimethylbiphenyl-3-yl)-4-hydroxy-8-(2-methoxyethyl)-1-azaspiro[4.5]dec-3-en-2-one]",,1680 nM,,,,250 nM,1290 nM
"Cc1ccc(-c2ccc(Cl)cc2)cc1C1=C(O)C(C)(C)OC1=O [2-3, 3-(4′-chloro-4-methylbiphenyl-3-yl)-4-hydroxy-5,5-dimethylfuran-2(5H)-one]",,> 20000 nM,1060 nM,,,,3730 nM
"COC1CCCC2(C1)OC(=O)C(c1c(C)cc(C)c(-c3ccc(Cl)cc3)c1C)=C2O (stereo not drawn) [2-12, 3-(4′-chloro-2,4,6-trimethylbiphenyl-3-yl)-4-hydroxy-7-methoxy-1-oxaspiro[4.5]dec-3-en-2-one]",,3420 nM,1240 nM,,,,4260 nM
"Cc1cc(C)c(-c2ccc(Cl)cc2)c(C)c1C1=C(O)[C@]2(CC[C@@]3(CCCO3)CC2)OC1=O [2-31, (5r,8s)-3-(4′-chloro-2,4,6-trimethylbiphenyl-3-yl)-4-hydroxy-1,9-dioxadispiro[4.2.4.2]tetradec-3-en-2-one]",,76 nM,490 nM,,,,2000 nM
"Cc1ccc(-c2ccc(Cl)cc2)c(C)c1C1=C(O)C2(CCC(OCC(F)(F)F)CC2)OC1=O (stereo not drawn) [2-32, 3-(4′-chloro-2,4-dimethylbiphenyl-3-yl)-4-hydroxy-8-(2,2,2-trifluoroethoxy)-1-oxaspiro[4.5]dec-3-en-2-one]",,2820 nM,112 nM,,,,339 nM
"Cc1cc(C)c(-c2ccc(Cl)cc2)cc1C1=C(O)C2(CCCCCC2)OC1=O [2-43, 3-(4′-chloro-4,6-dimethylbiphenyl-3-yl)-4-hydroxy-1-oxaspiro[4.6]undec-3-en-2-one]",,737 nM,263 nM,,,,168 nM
"COC1CCC2(CC1)OC(=O)C(c1cc(-c3ccc(Cl)cc3)c(C)cc1C)=C2O (stereo not drawn) [2-44, 3-(4′-chloro-4,6-dimethylbiphenyl-3-yl)-4-hydroxy-8-methoxy-1-oxaspiro[4.5]dec-3-en-2-one]",,244 nM,121 nM,,,,220 nM
"Cc1cc(C)c(-c2ccc(Cl)cc2)cc1C1=C(O)C(C)OC1=O (stereo not drawn) [2-45, 3-(4′-chloro-4,6-dimethylbiphenyl-3-yl)-4-hydroxy-5-methylfuran-2(5H)-one]",,17500 nM,6700 nM,,,,1830 nM
"Cc1cc(C)c(-c2ccc(Cl)cc2)c(C)c1C1=C(O)C2(CCCCC2)CC1=O [6-9, 3-(4′-chloro-2,4,6-trimethylbiphenyl-3-yl)-4-hydroxyspiro[4.5]dec-3-en-2-one]",,2120 nM,,,1520 nM,,≥ 20000 nM
